This is an account of results in patent US20100063085A1, “METHOD OF TREATING LEARNING IMPAIRMENT IN DOWN'S SYNDROME SUBJECTS” (University Court of The University of Dundee, priority 2008, published 2010).

Holding throughout (type): biochemical
One test deals with CK2. Nature of the test: CK2 33P kinase assay. As for the experimental part: (§1) All assays (25.5 μl) were carried out at room temperature (21° C.) and were linear with respect to time and enzyme concentrations under the conditions used. Assays were performed for 30 minutes except assays for LCK and PKB which were performed for 15 minutes using Multidrop Micro reagent dispensers (Thermo Electron Corporation, Waltham, Mass. 02454, USA) in a 96-well format. The concentration of […] [γ-^33P] ATP (800 cpm/pmol) in the assays was one of three concentrations (5, 20 or 50 μM) in order to be at or below Km for ATP for the enzyme. Assays were initiated with MgATP and stopped by addition of 5 μl of 0.5M orthophosphoric acid. Assays were then harvested onto P81 filterplates using a unifilter harvester (PerkinElmer, Boston, Mass. 02118, USA), with a wash buffer of 50 mM orthophosphoric acid. Filterplates were then air dried overnight. 10 μl of Microscint O was added per well prior to counting for radioactivity.
MKK1, JNK/SAPK1c, SAPK2a/p38, SAPK2b/p38β2, SAPK3/p38γ, SAPK4/p38δ, MAPK2/ERK2, MAPKAP-K1β, MAPKAP-K2, MSK1, PRAK, PKA, PKCα, PDK1, SGK, p70S6K, GSK3β, ROCK-II, PRK2, AMPK, CHK1, CHK2, CK2, PHK, LCK, were assayed according to Davies et al., (Davies, S. P., Reddy, H., Caivano, M. and Cohen, P. Biochem. J. 351, 95-105, 2000.
CSK and CDK2/cyclinA, were assayed according to Bain et al. (Bain J, McLauchlan H, Elliott M, Cohen P. Biochem J. 371, 199-204, 2003., except that ATP concentrations were either 5, 20 or 50 micromolar so that they were at or below the Km for ATP. The ATP concentrations used were as follows, 5 μM for assays of MKK1, SAPK3, SAPK4, GSK3β, PRK2 CK2 20 μm for assays of JNK, SAPK2β, MAPKAP-K2, MSK1, PRAK, PKA, […], PDK1, SGK, p70S6K, ROCK-II, CHK1, CHK2, CSK, CDK2, and 50 μM for assays of SAPK2a, MAPK2/ERK2, AMPK, LCK, PHK and MAPKAP-K1β.

The next test concerns the target T1, PKD1 (Homo sapiens, UniProt Q15139).
T1 sequence (Q15139 1-912): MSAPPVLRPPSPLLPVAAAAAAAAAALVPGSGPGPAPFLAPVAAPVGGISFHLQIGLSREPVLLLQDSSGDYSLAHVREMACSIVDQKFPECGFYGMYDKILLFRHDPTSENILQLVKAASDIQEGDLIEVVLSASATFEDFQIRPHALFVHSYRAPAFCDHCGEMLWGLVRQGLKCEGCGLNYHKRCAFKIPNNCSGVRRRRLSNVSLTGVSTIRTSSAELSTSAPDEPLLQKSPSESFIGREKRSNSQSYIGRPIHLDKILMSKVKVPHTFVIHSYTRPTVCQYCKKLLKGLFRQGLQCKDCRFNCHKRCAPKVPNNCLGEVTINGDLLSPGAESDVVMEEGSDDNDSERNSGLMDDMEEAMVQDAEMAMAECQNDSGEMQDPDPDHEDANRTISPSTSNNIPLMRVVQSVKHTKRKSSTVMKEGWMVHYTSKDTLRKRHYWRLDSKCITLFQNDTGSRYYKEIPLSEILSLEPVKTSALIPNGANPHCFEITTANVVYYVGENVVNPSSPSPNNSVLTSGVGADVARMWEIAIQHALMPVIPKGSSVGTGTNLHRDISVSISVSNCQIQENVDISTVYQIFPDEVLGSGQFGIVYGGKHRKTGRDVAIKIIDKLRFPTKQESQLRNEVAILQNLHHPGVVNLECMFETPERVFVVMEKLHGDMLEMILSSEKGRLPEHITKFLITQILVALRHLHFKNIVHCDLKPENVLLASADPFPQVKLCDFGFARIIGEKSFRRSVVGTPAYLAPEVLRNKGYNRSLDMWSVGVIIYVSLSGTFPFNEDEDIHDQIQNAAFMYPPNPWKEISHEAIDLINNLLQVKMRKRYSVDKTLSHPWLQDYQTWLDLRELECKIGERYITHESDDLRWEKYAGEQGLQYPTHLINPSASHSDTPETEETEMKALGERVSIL
Nature of the test: PKD1 33P kinase assay. To be noted: read-out: PKD1 activity as percentage of control without inhibitor. As for the experimental part:
as §1
(§2) The following kinases were assayed against the substrates indicated. Aurora B was assayed against the substrate peptide […] (300 μM), ERK8 and MST-2 were both assayed against MBP (0.33 mg/ml). IKKβ was assayed against the substrate peptide […] (300 μM), JNK3 was assayed against 3 μM ATF2[19-96]. MAPKAP-K3 and PKD1 were both assayed against […] (30 μM), MARK3 was assayed against CHKtide ([…]) substrate peptide (300 μM). MNK1 and MNK2 were both assayed against eIF4E protein (0.5 mg/ml). NEK7 was assayed against […] (300 μM), PIM2 was assayed against […] (300 μM), ΔPH PKBβ-S474D was assayed against Crosstide (30 μM), PLK1 was assayed against […] (300 μM). PRK2 was assayed against Long S6 peptide, […] (30 μM), RSK2 was assayed against […] (30 μM), SRC was assayed against cdc2 peptide, […], (300 μM) and SRPK1 was assayed against peptide […] (300 μM). All enzymes were diluted in 50 mM Tris/HCl pH 7.5, 0.1 mM EGTA, 1 mg/ml BSA, 0.1% β-mercaptoethanol buffer and assayed in an incubation containing 50 mM Tris/HCl pH7.5, 0.1 mM EGTA, 0.1% β-mercaptoethanol, CAMK-1 (5-20 mU) diluted in 50 mM Tris/HCl pH 7.5, 0.1 mM EGTA, 1 mg/ml BSA, 0.1% β-mercaptoethanol is assayed against substrate peptide […] in an incubation containing 50 mM Tris/HCl pH 7.5, 0.1 mM EGTA, 0.5 mM CaCl2, 0.3 μM calmodulin, 0.1% β-mereaptoethanol, 300 μM substrate peptide, 10 mM magnesium acetate and 0.05 mM [^33P-γ-ATP] (500-1000 cpm/pmole). EF2K (5-20 mU) diluted in 50 mM Hepes pH 6.6, 0.1% β-mercaptoethanol, 1 mg/ml BSA is assayed against a substrate peptide […] in an incubation containing 50 mM Hepes pH 6.6, 0.2 mM CaCl2, 0.3 μM Calmodulin, 0.05% b-mercaptoethanol, 300 μM substrate peptide, 10 mM magnesium acetate and 0.05 mM [^33P-γ-ATP] (500-1000 cpm/pmole).

A further test concerns the target PLK1 (Homo sapiens, UniProt P53350). Nature of the test: PLK1 33P kinase assay. To be noted: read-out: PLK1 activity as percentage of control without inhibitor. As to the method: as §1, §2

SMILES strings stand for the structures. Like-named read-outs stand apart in the source and are kept apart here.

Sequence of PLK1 (P53350 whole entry, species assumed): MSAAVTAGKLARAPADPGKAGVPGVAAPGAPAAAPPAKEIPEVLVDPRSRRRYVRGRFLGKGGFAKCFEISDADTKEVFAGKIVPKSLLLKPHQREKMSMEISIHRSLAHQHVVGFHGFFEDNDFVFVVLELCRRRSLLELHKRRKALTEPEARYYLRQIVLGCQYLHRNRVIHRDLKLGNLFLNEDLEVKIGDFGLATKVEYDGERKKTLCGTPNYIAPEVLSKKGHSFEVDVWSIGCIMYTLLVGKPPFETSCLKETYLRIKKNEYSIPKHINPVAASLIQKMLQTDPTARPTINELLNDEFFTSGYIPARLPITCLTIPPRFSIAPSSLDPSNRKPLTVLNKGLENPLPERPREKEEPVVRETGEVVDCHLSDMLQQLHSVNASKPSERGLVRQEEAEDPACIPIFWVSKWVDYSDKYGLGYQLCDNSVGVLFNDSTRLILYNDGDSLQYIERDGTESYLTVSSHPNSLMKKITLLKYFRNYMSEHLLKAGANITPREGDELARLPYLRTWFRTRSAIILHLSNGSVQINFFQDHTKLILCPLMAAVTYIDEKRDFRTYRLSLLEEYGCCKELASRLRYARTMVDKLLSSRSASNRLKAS

`COc1ccc2c3c([nH]c2c1)C(C)=NCC3` [Harmaline]: the “CK2 activity as percentage of control without inhibitor” value in the test with CK2 (inhibitor 1 μM) amounted to 94%; in the test with CK2 (inhibitor 10 μM), 88%. Also, the remaining activity at 1 µM at PKD1 (inhibitor 1 μM) stood at 99%; at PLK1 (inhibitor 1 μM), 92%. In addition, the remaining activity at 10 µM at PKD1 (inhibitor 10 μM) is 101%; at PLK1 (inhibitor 10 μM) it was 100%.
On to `CC1=NCCc2c1[nH]c1cc(O)ccc21` [Harmalol], for which the “CK2 activity as percentage of control without inhibitor” value with CK2 (inhibitor 1 μM) was found to be 55%; in the test on CK2 (inhibitor 10 μM), 12%. For the same compound, the remaining activity at 1 µM on PKD1 (inhibitor 1 μM) came to 75%; on PLK1 (inhibitor 1 μM) it was 88%. The remaining activity at 10 µM at PKD1 (inhibitor 10 μM) amounted to 21%; on PLK1 (inhibitor 10 μM), 81%.
`COc1ccc2c(c1)[nH]c1c(C)nccc12` [Harmine]: the “CK2 activity as percentage of control without inhibitor” value in the test on CK2 (inhibitor 1 μM) is listed as 82%; with CK2 (inhibitor 10 μM), 41%. Moreover, the figures for the remaining activity at 1 µM on PKD1 and at PLK1 were 86% and 92%, respectively. Further, the values for the remaining activity at 10 µM at PKD1 and on PLK1 were 53% and 87%, respectively.
